Columns and labels:
[1] = tested on: RKO colon adenocarcinoma cells (RKOp27) arrested by expression of ectopic p27Kip1; assay: Alamar Blue cell viability assay on RKOp27 cells arrested by Ponasterone A-induced p27Kip1 (cell cycle specific mode of action); format: cell-based; conditions: Homo sapiens, RKOp27, 72 h, cells arrested by p27Kip1 induced with 10 μM Ponasterone A, 72 hours incubation, read-out: IC50 RKO p27 arrested
In short: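 Viability measured by Alamar Blue fluorescence (ex 544, em 590 nm) after 72 h, 37 °C compound exposure in quadruplicate, normalized to untreated cells as 100%. Cells were p27Kip1-arrested RKOp27, induced with 10 μM Ponasterone A at seeding; compound added 24 h later.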

[2] = tested on: RKO (RKOp27) human colon adenocarcinoma cells; assay: Alamar Blue cell viability assay, anti-proliferative/cytotoxic activity on proliferating RKOp27 cells; format: cell-based; conditions: absence of Ponasterone A, 72 hours incubation, read-out: IC50 RKO p27 proliferating
In short: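 RKOp27 subclone of RKO cells, 4000/well in DMEM with 10% FCS, was treated 24 h after seeding with semi-log compound dilutions in quadruplicate for 72 h at 37 °C, 5% CO2. Alamar Blue fluorescence (ex 544/em 590 nm) was read as % viability of untreated cells, and IC50 was taken from concentration-effect curves.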

Row | IC50 [1] [µM] | SMILES | IC50 [2] [µM]
1 | > 100 | CCOC(=O)N1CCc2c(sc(NC(=O)/C=C/c3ccccc3)c2C#N)C1 [Example 1, N-(6-Ethoxycarbonyl-3-cyano-4,5,6,7-tetrahydro-thieno[2,3-c]pyridin-2-yl)-3-phenyl-acrylamide] | < 1
2 | ≥ 100 | CCOC(=O)N1CCc2c(sc(NC(=O)/C=C/c3cccc(C)c3C)c2C#N)C1 [Example 86, 3-Cyano-2-[(E)-3-(2,3-dimethyl-phenyl)-allanoylamino]-4,7-dihydro-5H-thieno[2,3-c]pyridine-6-carboxylic acid ethyl ester] | ≤ 2
3 | ≥ 100 | CCOC(=O)N1CCc2c(sc(NC(=O)/C=C/c3cc(F)ccc3C)c2C#N)C1 [Example 79, 3-Cyano-2-[(E)-3-(5-fluoro-2-methyl-phenyl)-allanoylamino]-4,7-dihydro-5H-thieno[2,3-c]pyridine-6-carboxylic acid ethyl ester] | ≤ 2
4 | ≥ 100 | CC1(C)OCC(COC(=O)N2CCc3c(sc(NC(=O)/C=C/c4cccnc4)c3C#N)C2)O1 (stereo not shown) [Example 164, 3-Cyano-2-((E)-3-pyridin-3-yl-allanoylamino)-4,7-dihydro-5H-thieno[2,3-c]pyridine-6-carboxylic acid 2,2-dimethyl-[1,3]dioxolan-4-ylmethyl ester] | ≤ 2
5 | ≥ 100 | CN(C)C(=O)CCC(=O)N1CCc2c(sc(NC(=O)/C=C/c3ccccc3)c2C#N)C1 [Example 178, 4-[3-Cyano-2-((E)-3-phenyl-allanoylamino)-4,7-dihydro-5H-thieno[2,3-c]pyridin-6-yl]-N,N-dimethyl-4-oxo-butyramide] | ≤ 2
6 | ≥ 100 | CCOC(=O)N1CCc2c(sc(NC(=O)/C=C/c3ccccc3CC)c2C#N)C1 [Example 82, 3-Cyano-2-[(E)-3-(2-ethyl-phenyl)-allanoylamino]-4,7-dihydro-5H-thieno[2,3-c]pyridine-6-carboxylic acid ethyl ester] | ≤ 2
7 | > 100 | CCOC(=O)N1CCc2c(sc(NC(=O)/C=C/c3cccc([N+](=O)[O-])c3)c2C#N)C1 [Example 29, 3-Cyano-2-[(E)-3-(3-nitro-phenyl)-allanoylamino]-4,7-dihydro-5H-thieno[2,3-c]pyridine-6-carboxylic acid ethyl ester] | ≤ 2
8 | ≥ 100 | N#Cc1c(NC(=O)/C=C/c2ccco2)sc2c1CCN(C(=O)Cc1cccnc1)C2 [Example 228, (E)-N-[3-Cyano-6-(2-pyridin-3-yl-ethanoyl)-4,5,6,7-tetrahydro-thieno[2,3-c]pyridin-2-yl]-3-furan-2-yl-acrylamide] | ≤ 2
9 | ≥ 100 | N#Cc1c(NC(=O)/C=C/c2ccccc2)sc2c1CCN(C(=O)CCCc1c[nH]c3ccccc13)C2 [Example 172, (E)-N-[3-Cyano-6-(4-1H-indol-3-yl-butanoyl)-4,5,6,7-tetrahydro-thieno[2,3-c]pyridin-2-yl]-3-phenyl-acrylamide] | ≤ 2
10 | ≥ 100 | CCOC(=O)N1CCc2c(sc(NC(=O)/C=C/c3cccc4c3OCO4)c2C#N)C1 [Example 111, 2-((E)-3-Benzo[1,3]dioxol-4-yl-allanoylamino)-3-cyano-4,7-dihydro-5H-thieno[2,3-c]pyridine-6-carboxylic acid ethyl ester] | ≤ 2
11 | ≥ 100 | CC(=O)OCC(=O)N1CCc2c(sc(NC(=O)/C=C/c3ccccc3)c2C#N)C1 [Example 189, Acetic acid 2-[3-cyano-2-((E)-3-phenyl-allanoylamino)-4,7-dihydro-5H-thieno[2,3-c]pyridin-6-yl]-2-oxo-ethyl ester] | ≤ 2
12 | ≥ 100 | N#Cc1c(NC(=O)/C=C/c2ccccc2)sc2c1CCN(C(=O)OCCN1CCOCC1)C2 [Example 112, 3-Cyano-2-((E)-3-phenyl-allanoylamino)-4,7-dihydro-5H-thieno[2,3-c]pyridine-6-carboxylic acid 2-morpholin-4-yl-ethyl ester] | ≤ 2
13 | > 100 | COC(=O)N1CCc2c(sc(NC(=O)/C=C/c3cccnc3)c2C#N)C1 [Example 44, 3-Cyano-2-((E)-3-pyridin-3-yl-allanoylamino)-4,7-dihydro-5H-thieno[2,3-c]pyridine-6-carboxylic acid methyl ester] | ≤ 2
14 | ≥ 100 | N#Cc1c(NC(=O)/C=C/c2ccco2)sc2c1CCN(C(=O)OCc1cccnc1)C2 [Example 242, 3-Cyano-2-((E)-3-furan-2-yl-allanoylamino)-4,7-dihydro-5H-thieno[2,3-c]pyridine-6-carboxylic acid pyridin-3-ylmethyl ester] | ≤ 2
15 | ≥ 100 | N#Cc1c(NC(=O)/C=C/c2ccco2)sc2c1CCN(C(=O)OCc1ccccn1)C2 [Example 241, 3-Cyano-2-((E)-3-furan-2-yl-allanoylamino)-4,7-dihydro-5H-thieno[2,3-c]pyridine-6-carboxylic acid pyridin-2-ylmethyl ester] | ≤ 2
16 | ≥ 100 | N#Cc1c(NC(=O)/C=C/c2ccccc2)sc2c1CCN(C(=O)Cn1ccnc1)C2 [Example 188, (E)-N-[3-Cyano-6-(2-imidazol-1-yl-ethanoyl)-4,5,6,7-tetrahydro-thieno[2,3-c]pyridin-2-yl]-3-phenyl-acrylamide] | ≤ 2
17 | ≥ 100 | CCOC(=O)N1CCc2c(sc(NC(=O)/C=C/c3ccccn3)c2C#N)C1 [Example 100, 3-Cyano-2-((E)-3-pyridin-2-yl-allanoylamino)-4,7-dihydro-5H-thieno[2,3-c]pyridine-6-carboxylic acid ethyl ester] | ≤ 2
18 | ≥ 100 | CCOC(=O)N1CCc2c(sc(NC(=O)/C=C/c3ccccc3Br)c2C#N)C1 [Example 66, 2-[(E)-3-(2-Bromo-phenyl)-allanoylamino]-3-cyano-4,7-dihydro-5H-thieno[2,3-c]pyridine-6-carboxylic acid ethyl ester] | ≤ 2
19 | > 100 | CCOC(=O)N1CCc2c(sc(NC(=O)/C=C/c3ccc(Cl)cc3Cl)c2C#N)C1 [Example 28, 3-Cyano-2-[(E)-3-(2,4-dichloro-phenyl)-allanoylamino]-4,7-dihydro-5H-thieno[2,3-c]pyridine-6-carboxylic acid ethyl ester] | ≤ 2
20 | ≥ 100 | N#Cc1c(NC(=O)/C=C/c2ccccc2)sc2c1CCN(C(=O)OCCCN1CCOCC1)C2 [Example 120, 3-Cyano-2-((E)-3-phenyl-allanoylamino)-4,7-dihydro-5H-thieno[2,3-c]pyridine-6-carboxylic acid 3-morpholin-4-yl-propyl ester] | ≤ 2
21 | ≥ 100 | CCOC(=O)N1CCc2c(sc(NC(=O)/C=C/c3cccc(F)c3C)c2C#N)C1 [Example 80, 3-Cyano-2-[(E)-3-(3-fluoro-2-methyl-phenyl)-allanoylamino]-4,7-dihydro-5H-thieno[2,3-c]pyridine-6-carboxylic acid ethyl ester] | ≤ 2
22 | ≥ 100 | Cc1ncc([N+](=O)[O-])n1CCOC(=O)N1CCc2c(sc(NC(=O)/C=C/c3ccccc3)c2C#N)C1 [Example 122, 3-Cyano-2-((E)-3-phenyl-allanoylamino)-4,7-dihydro-5H-thieno[2,3-c]pyridine-6-carboxylic acid 2-(2-methyl-5-nitro-imidazol-1-yl)-ethyl ester] | ≤ 2
23 | ≥ 100 | COCC(=O)N1CCc2c(sc(NC(=O)/C=C/c3cccnc3)c2C#N)C1 [Example 194, (E)-N-[3-Cyano-6-(2-methoxy-ethanoyl)-4,5,6,7-tetrahydro-thieno[2,3-c]pyridin-2-yl]-3-pyridin-3-yl-acrylamide] | ≤ 2
24 | ≥ 100 | CCOC(=O)N1CCc2c(sc(NC(=O)/C=C/c3cccn3C)c2C#N)C1 [Example 97, 3-Cyano-2-[(E)-3-(1-methyl-1H-pyrrol-2-yl)-allanoylamino]-4,7-dihydro-5H-thieno[2,3-c]pyridine-6-carboxylic acid ethyl ester] | ≤ 2
25 | ≥ 100 | CCOC(=O)N1CCc2c(sc(NC(=O)/C=C/c3c(F)cccc3F)c2C#N)C1 [Example 65, 3-Cyano-2-[(E)-3-(2,6-difluoro-phenyl)-allanoylamino]-4,7-dihydro-5H-thieno[2,3-c]pyridine-6-carboxylic acid ethyl ester] | ≤ 2
26 | ≥ 100 | N#Cc1c(NC(=O)/C=C/c2ccccc2)sc2c1CCN(C(=O)CCCn1ccnc1)C2 [Example 190, (E)-N-[3-Cyano-6-(4-imidazol-1-yl-butanoyl)-4,5,6,7-tetrahydro-thieno[2,3-c]pyridin-2-yl]-3-phenyl-acrylamide] | ≤ 2
27 | ≥ 50 | CCOc1ccccc1/C=C/C(=O)Nc1sc2c(c1C#N)CCN(C(=O)OC(C)(C)C)C2 [Example 54, 3-Cyano-2-[(E)-3-(2-ethoxy-phenyl)-allanoylamino]-4,7-dihydro-5H-thieno[2,3-c]pyridine-6-carboxylic acid tert-butyl ester] | ≤ 0.5
28 | ≥ 100 | N#Cc1c(NC(=O)/C=C/c2ccccc2)sc2c1CCN(C(=O)OCCc1ccncc1)C2 [Example 126, 3-Cyano-2-((E)-3-phenyl-allanoylamino)-4,7-dihydro-5H-thieno[2,3-c]pyridine-6-carboxylic acid 2-pyridin-4-yl-ethyl ester] | ≤ 2
29 | ≥ 100 | N#Cc1c(NC(=O)/C=C/c2cccnc2)sc2c1CCN(C(=O)Cc1ccccn1)C2 [Example 196, (E)-N-[3-Cyano-6-(2-pyridin-2-yl-ethanoyl)-4,5,6,7-tetrahydro-thieno[2,3-c]pyridin-2-yl]-3-pyridin-3-yl-acrylamide] | ≤ 2

From patent publication US7723523B2, “Tetrahydropyridothiophenes” (4SC AG, priority 2004, dated 2010)
